In patent US20110004019A1, “Parakeratosis Inhibitor, Pore-Shrinking Agent, Or Rough Skin Inhibiting/Ameliorating Agent, And External Composition For Skin Containing The Same” (SHISEIDO COMPANY LTD., priority 2008, published 2011):

Legend:
[1] = system: back skin of hairless mouse (HR-1) applied with oleic acid; experiment: Test for Parakeratosis-Inhibiting Effect (oleic acid applied on the back of hairless mouse; rough skin visual score and parakeratosis value); type: in vivo; details: for Parakeratosis value (Average for 5 mice): 3.0 mass % sample after 10 mass % oleic acid; for Parakeratosis value (Average for 5 mice) / Parakeratosis value (Average for 4 mice) / Visual observation value (Average for 4 mice): 3 days; for Parakeratosis value (Average for 5 mice) / Parakeratosis value (Average for 4 mice): control = 2.0; for effect of inhibiting parakeratosis (Tables 1 and 2) / effects of inhibiting rough skin such as desquamation and erythema caused by unsaturated fatty acids (text on Table 1): 3 mass %, hairless mouse, oleic acid; for Parakeratosis value (Average for 4 mice) / Visual observation value (Average for 4 mice): 3 mass % sample after 10 mass % oleic acid; for Parakeratosis value (Average for 4 mice): tape-stripped stratum corneum, hematoxylin, higher = more parakeratosis; for Visual observation value (Average for 4 mice): back of hairless mouse, rough skin (desquamation and erythema) score, control = 2.0, no roughness = 0.0
Protocol: 3 mass % test compound aqueous solution (containing 30 mass % ethanol) was primarily prepared as a sample solution. The pH was adjusted with hydrochloric acid or sodium hydroxide so as to be 7.0 to 7.5. When the solubility of test compound was low, the sample solution was prepared depending on the solubility.
100 μl of 10 mass % oleic acid solution (solvent: ethanol) was applied on the back of a hairless mouse (HR-1; Hoshino Laboratory Animals), and then 100 μl of the sample solution was applied thereon. […] In the evaluation, the condition of the skin on which the control (control aqueous solution) was applied set a score of 2.0 and the skin condition without roughness set a score of 0.0. Then, the skin condition was scored by visual observation in increments of 0.25 between them. At the same time, the stratum corneum at the back of the hairless mouse was peeled off with tape, the nuclei were stained by hematoxylin, and the degree of parakeratosis was observed and evaluated using a parakeratosis value within a range of 1.0 to 3.0 (in 0.25 increments). The higher the value is, the more the number of nucleated cell in the stratum corneum is, i.e., the more the parakeratosis is advanced.
The evaluation was conducted according to the plan which was approved in the in-house council on animal experiment, complying with Act on Welfare and Management of Animals and other related acts.

[2] = system: cheek of sensory person (who has sensitive skin); experiment: Sensory Irritation Test; type: in vivo, human; details: for Evaluation (sensory irritation): 1 mL on cheek, ten minutes; for sensory irritation (Tables 4 and 5): 3 mass %, test subject with sensitive skin
Protocol: Then, the irritating sensation was evaluated every 30 seconds for ten minutes immediately after the application, and a final evaluation was reported (n=2). The evaluation of the irritating sensation was based on the following rating criteria in four levels, and each average rating was calculated to be classified by the following criteria.
3: The test cannot be continued because of extremely strong irritation such as tingly, burning, prickly, and itching sensation. 2: The use is intolerable because of strong irritation such as tingly, burning, prickly, and itching sensation. 1: The use is tolerable though slight irritation such as tingly, burning, prickly, and itching sensation is felt. 0: The irritation is not particularly felt.
A: Average rating is less than 0.2 B: Average rating is 0.2 or greater to less than 1.0 C: Average rating is 1.0 or greater to less than 2.0 D: Average rating is 2.0 or greater

[3] = system: IL-1α production in human normal keratinocytes; experiment: Inhibiting Effect of Increased Production of Inflammatory Cytokine Caused by Oleic Acid; type: cell-based; details: for IL-lα (pmol/ml, Mean ± S.D.): 8 hours
Protocol: LTD., were incubated using KGM culture medium in a 75 cm^2 flask for 3 days. The cells were trypsinized according to a normal method, collected, and then inoculated into a 24 well plate (Corning Inc.) so as to be 40,000 cells per 0.5 ml of KGM culture medium. After incubation for another 3 days, oleic acid, or oleic acid and test compound, were added thereto. […] As a control, ethanol was added instead of oleic acid. After 8 hours, each culture was collected, and the amount of IL-1α was measured with a quantification kit (from R&D systems).

[4] = system: back skin of hairless mice (HR-1) applied with oleic acid; experiment: Test for Ameliorating Effect to Rough Skin Induced by Applying Oleic Acid (TEWL); type: in vivo; details: for TEWL value: 3 mass % sample after 10 mass % oleic acid, 3 days, average of four mice, higher = worse rough skin, control = 12.0; for ΔTEWL value compared with the control aqueous solution (text on Table 3): 3 mass %, hairless mice, oleic acid
Protocol: The difference was compared with the control (control aqueous solution), and the effect was determined. […] The TEWL was measured using TEWA Meter TM210 (Courage+Khazaka Electronic GmBH).
100 μl of 10 mass % oleic acid solution (solvent: ethanol) was applied on the back of hairless mice (HR-1, four mice per group), and then 100 μl of the sample solution was applied thereon. The day after this procedure was continued for 3 days, the TEWL value of the back was measured, and the average value of the four mice was calculated. The higher the TEWL value is, the worse rough skin becomes.

[5] = 3.0 mass % sample aqueous solution, n=2 (Table 5)
[6] = 3 mass % sample aqueous solution, n=2 (Table 4)

SMILES | Parakeratosis value (Average for 5 mice) [1] | effect of inhibiting parakeratosis (Tables 1 and 2) [1] | Evaluation (sensory irritation) [2, 5] | sensory irritation (Tables 4 and 5) [2] | Parakeratosis value (Average for 4 mice) [1] | Visual observation value (Average for 4 mice) [1] | effects of inhibiting rough skin such as desquamation and erythema caused by unsaturated fatty acids (text on Table 1) [1] | Evaluation (sensory irritation) [2, 6] | TEWL value [4] | ΔTEWL value compared with the control aqueous solution (text on Table 3) [4] | also measured
N=C(N)NC(CCC(=O)O)C(=O)O (racemic) [N-amidino-DL-glutamic acid] | 1.2 | lowered the parakeratosis value | A (Average rating is less than 0.2) | had no problem in sensory irritation | – | – | – | – | – | – | –
Cl.N=C(N)N[C@@H](CCC(=O)O)C(=O)O [N-amidino-L-glutamic acid hydrochloride] | 1.1 | lowered the parakeratosis value | A (Average rating is less than 0.2) | had no problem in sensory irritation | – | – | – | – | – | – | –
N=C(N)N[C@H](CCC(=O)O)C(=O)O [N-amidino-D-glutamic acid] | 1.2 | lowered the parakeratosis value | A (Average rating is less than 0.2) | had no problem in sensory irritation | – | – | – | – | – | – | –
CCNC(=O)CC[C@H](NC(C)=O)C(=O)NCC [N-acetyl-N′,N″-diethyl-L-glutamic acid-1,5-diamide] | – | – | – | – | – | – | – | – | – | – | IL-lα (pmol/ml, Mean ± S.D.) ([3]; 10 μM oleic acid + 500 μM test compound, solvent 4.7 ± 1.5, p < 0.01 vs. oleic acid): 225.5 ± 3.2 pmol/mL; inhibition of the increased production of IL-1α caused by oleic acid (Table 6) ([3]; 10 μM oleic acid, 500 μM (0.012%) compound): significantly inhibits the increased production of IL-1α
O=C(O)CC[C@H](NC(=O)OCc1ccccc1)C(=O)O [N-benzyloxycarbonyl-L-glutamic acid] | – | – | – | had no problem in sensory irritation | 0.9 | 0.9 | showed the effects of inhibiting rough skin | A (Average rating is less than 0.2) | 6.8 | significantly lowered the ΔTEWL value | –
N=C(N)N[C@@H](CCC(=O)O)C(=O)O [N-amidino-L-glutamic acid] | 1.1 | lowered the parakeratosis value | A (Average rating is less than 0.2) | had no problem in sensory irritation | – | – | – | – | – | – | –
N=C(N)N[C@@H](CCC(=O)[O-])C(=O)[O-].[Na+].[Na+] [Sodium N-amidino-L-glutamate] | 1.1 | lowered the parakeratosis value | A (Average rating is less than 0.2) | had no problem in sensory irritation | – | – | – | – | – | – | –
CC(=O)N[C@@H](CCC(=O)O)C(=O)O [N-acetyl-L-glutamic acid, reference compound] | – | inferior to those of the compounds of the present invention | – | – | 1.2 | 1.2 | – | – | 10.1 | inferior to that of the compounds of the present invention | –
CN[C@@H](CCC(=O)O)C(=O)O [N-methyl-L-glutamic acid] | – | – | – | had no problem in sensory irritation | 0.8 | 0.8 | showed the effects of inhibiting rough skin | A (Average rating is less than 0.2) | 6.4 | significantly lowered the ΔTEWL value | –
CC(=O)N[C@@H](CCC(N)=O)C(=O)O [N-acetyl-L-glutamine, reference compound] | 1.9 | did not show such effects | – | – | 1.9 | 1.9 | did not show such effects | – | 13.2 | did not show such effects | –
NC(=O)NCCC[C@H](N)C(=O)O [Citrulline, reference compound] | 2.0 | did not show such effects | – | – | – | – | – | – | – | – | –
NC(=O)N[C@@H](CCC(=O)O)C(=O)O [N-carbamoyl-L-glutamic acid] | – | – | – | had no problem in sensory irritation | 0.7 | 0.7 | showed the effects of inhibiting rough skin | A (Average rating is less than 0.2) | 6.4 | significantly lowered the ΔTEWL value | –
NCCCC(=O)O [γ-aminobutyric acid, reference compound] | – | – | C (Average rating is 1.0 or greater to less than 2.0) | resulted in giving sensory irritation | – | – | – | C (Average rating is 1.0 or greater to less than 2.0) | – | – | –
CNC(CCC(=O)O)C(=O)O (racemic) [N-methyl-DL-glutamic acid] | – | – | – | had no problem in sensory irritation | 0.9 | 0.9 | showed the effects of inhibiting rough skin | A (Average rating is less than 0.2) | 7.9 | significantly lowered the ΔTEWL value | –
CCCCCCCC/C=C\CCCCCCCC(=O)O [oleic acid, reference compound] | – | – | – | – | – | – | – | – | – | – | IL-lα (pmol/ml, Mean ± S.D.) ([3]; 10 μM oleic acid alone, solvent (ethanol) 4.7 ± 1.5): 239.8 ± 1.3 pmol/mL
